Measured values taken from patent publication US11730178B2, “Extraction method” (THE PRODUCT MAKERS (AUSTRALIA) PTY LTD, priority 2012, dated 2023).

Experiments:
[1] = tested on: PEG2 production from 3T3 cells; experiment: PEG2 (prostaglandin E2) inhibition in 3T3 cells stimulated with calcium ionophore, EIA kit; type: cell-based; conditions: Mus musculus, NIH3T3, at 0.488 μg/mL, read-out: highest PEG2 inhibition observed
Description: An extract according to the invention can also be tested for anti-inflammatory activity. By way of a non-limiting example, the extracts may be tested for prostaglandin E2 (PGE2) activity. As known in the art, PGE2 inhibitory activity can be measured by the ability of test samples to inhibit PGE2 production in 3T3 cells when stimulated with calcium ionophore. As understood in the art, aspirin and ibuprofen may be included in the assay as a positive control. The in vitro production of PEG2 from 3T3 cells was measured using the Cayman Chemical Prostaglandin E2 monoclonal EIA (Enzyme Immuno Assay) kit. The cells were exposed to samples 3 and 6 and stimulated with calcium ionophore. The cell supernatants were then assayed for PEG2 production. The cell cytotoxicity of the samples was tested against 3T3 cells to confirm that the observed PEG2 inhibition was not due to cell cytotoxicity. Aspirin and ibuprofen were used as positive controls.

[2] = molecular target: yeast (Saccharomyces cerevisiae) α-glucosidase; experiment: α-Glucosidase inhibition (hydrolysis of 4-methylumbelliferyl-α-D-glucopyranoside, fluorescence); type: biochemical; conditions: pH 5.5, 20 minutes at 37° C.
Protocol: As known in the art, α-glucosidase inhibitory activity can be measured as the ability of test samples to prevent the hydrolysis of 4-methylumbelliferyl-α-D-glucopyranosidase by yeast (Saccharomyces cerevisiae) α-glucosidase using known techniques. As will be understood by the skilled person, acarbose can be included in the assay as a positive control.
α-Glucosidase inhibitory activity is measured as the ability of test samples to prevent the hydrolysis of 4-methylumbelliferyl-α-D-glucopyranosidase by yeast (Saccharomyces cerevisiae) α-glucosidase.
Each sample (0.5 mL) was weighed and freeze-dried to determine its % dry matter. The samples were then resuspended in either dimethyl sulfoxide (DMSO) or DMSO:water (1:1) to a concentration of 15 mg/mL, after which the samples were serially diluted.
The substrate, 4-methylumbelliferyl-α-D-glucopyranoside, and enzyme, yeast α-glucosidase, were prepared in the assay buffer, sodium acetate buffer (pH 5.5). The substrate (final concentration 83 μM, 45 μL) was added to 96-well plates containing 45 μL enzyme (final concentration 1.7 mU/mL) and 10 μL of sample. […] The reaction was stopped by the addition of 100 mM sodium glycine buffer (100 μL, pH 10.6), the plate was shaken for a further 30 seconds, and the fluorescence intensity was measured at λex 355 nm and λem 460 nm. […]

Compound	inhibition at 0.488 µg/mL [1]	α-glucosidase inhibitory activity IC50 [2]
CC(C)Cc1ccc(C(C)C(=O)O)cc1 (centres unmarked) [ibuprofen]	42.1%	
fucoidan		0.17 µg/mL
